# The source made the active and inactive calls. The calls are words filed in the database; no cut-off is given here.
# Columns and labels:
# [1] = Inhibition of HCMV DNA polymerase extracted from baculovirus infected Sf21 cells using Heterodimeric nucleic acid as substrate preincubated with enzyme for 30 mins followed by substrate and dATP addition measured after 60 mins by biotinylated UTP incorporation based AlphaLISA assay; parameters: species or system Human betaherpesvirus 5
# [2] = Inhibition of VZV DNA polymerase extracted from baculovirus infected Sf21 cells using Heterodimeric nucleic acid as substrate preincubated with enzyme for 30 mins followed by substrate and dATP addition measured after 60 mins by biotinylated UTP incorporation based AlphaLISA assay; parameters: species or system Human alphaherpesvirus 3
# Human betaherpesvirus 5 = assay: Antiviral activity against HCMV AD169 infected in human MRC5 cells assessed as reduction in viral replication incubated for 72 hrs in presence of 50 % serum by qRT-PCR analysis; type: functional, organism-based; conditions: Human betaherpesvirus 5, AD169, MRC5, 72 h; read-out: EC50
# Human alphaherpesvirus 3 = assay: Antiviral activity against VZV Street infected in human MeWo cells assessed as reduction in viral replication incubated for 72 hrs by qRT-PCR analysis; type: functional, organism-based; conditions: Human alphaherpesvirus 3, Street, MeWo, 72 h; read-out: EC50
# Human alphaherpesvirus 1 [3] = assay: Antiviral activity against HSV-1 F strain infected in African green monkey Vero cells assessed as reduction in viral replication incubated for 72 hrs by qRT-PCR analysis; type: functional, organism-based; conditions: Human alphaherpesvirus 1, F strain, Vero, 72 h; read-out: EC50
# Human alphaherpesvirus 2 = assay: Antiviral activity against HSV-2 G strain infected in African green monkey Vero cells assessed as reduction in viral replication incubated for 72 hrs by qRT-PCR analysis; type: functional, organism-based; conditions: Human alphaherpesvirus 2, G strain, Vero, 72 h; read-out: EC50
# [4] = Unbound clearance in Wistar rat at 1 mg/kg,iv administration; type: ADME, organism-based; conditions: in vivo
# [5] = Unbound volume of distribution in Wistar rat at 1 mg/kg,iv or 10 mg/kg,po administration; type: ADME, organism-based; conditions: in vivo
# [6] = MRT in Wistar rat at 1 mg/kg,iv or 10 mg/kg,po administration; type: ADME, organism-based; conditions: in vivo
# [7] = Oral bioavailability in Wistar rat at 10 mg/kg administration; type: ADME, organism-based; conditions: in vivo
# [8] = Unbound AUC in Wistar rat at 1 mg/kg,iv or 10 mg/kg,po administration; type: ADME, organism-based; conditions: in vivo
# [9] = Unbound fraction in Wistar rat plasma at 1 mg/kg,iv or 10 mg/kg,po administration; type: ADME, organism-based
# [10] = molecular target: Voltage-gated inwardly rectifying potassium channel KCNH2 (Homo sapiens, UniProt Q12809); assay: Inhibition of hERG by patch-clamp assay; type: toxicity
# [11] = Inhibition of Inward-rectifier potassium channel (unknown origin); parameters: species or system Homo sapiens
# [12] = molecular target: Voltage-dependent L-type calcium channel subunit alpha-1C (Homo sapiens, UniProt Q13936); assay: Inhibition of Cav1.2 (unknown origin)
# [13] = molecular target: Sodium channel protein type 5 subunit alpha (Homo sapiens, UniProt Q14524); assay: Inhibition of Nav1.5 (unknown origin)
# Human alphaherpesvirus 1 [14] = assay: Antiviral activity against HSV-1 F strain intranasally infected in BALB/c mouse assessed as increase in mouse survival at po bid administration for 7 days; type: functional, organism-based; conditions: time 7.0 day
# Human alphaherpesvirus 1 [15] = assay: Antiviral activity against HSV-1 F strain intranasally infected in BALB/c mouse assessed as increase in mouse survival rate at 150 mg/kg,po bid administration for 7 days relative to control; type: functional; conditions: Human alphaherpesvirus 1, F strain, 168 h, time 7 day
# Human alphaherpesvirus 1 [16] = assay: Antiviral activity against HSV-1 F strain intranasally infected in BALB/c mouse assessed as reduction in viral burden in lung at 30 to 150 mg/kg,po bid administration measured after 4 days; type: functional, organism-based; conditions: dose 30-150 mg/kg, time 4.0 day
# Human alphaherpesvirus 1 [17] = assay: Antiviral activity against HSV-1 F strain intranasally infected in BALB/c mouse assessed as reduction in viral burden in brain at 30 to 150 mg/kg,po bid administration measured after 4 days by plaque assay; type: functional, organism-based; conditions: dose 30-150 mg/kg, time 4.0 day
# Human alphaherpesvirus 1 [18] = assay: Antiviral activity against HSV-1 F strain intranasally infected in BALB/c mouse assessed as increase in mouse survival rate at 150 mg/kg,po bid administrated 2 days before viral infection measured after 2 days; type: functional, organism-based; conditions: time 2.0 day
# Human alphaherpesvirus 1 [19] = assay: Antiviral activity against HSV-1 F strain intranasally infected in BALB/c mouse assessed as increase in mouse survival rate at 30 mg/kg,po bid administrated 2 days before viral infection measured after 2 days; type: functional, organism-based; conditions: time 2.0 day
# Cytomegalovirus [20] = assay: Antiviral activity against Cytomegalovirus Smith intraperitoneally infected in BALB/c mouse assessed as reduction in viral burden in spleen at 30 mg/kg,po bid administration measured after 4 days by plaque assay; type: functional, organism-based; conditions: route ip, time 4.0 day
# Cytomegalovirus [21] = assay: Antiviral activity against Cytomegalovirus Smith intraperitoneally infected in BALB/c mouse assessed as reduction in viral burden in spleen at 150 mg/kg,po bid administration measured after 4 days by plaque assay; type: functional, organism-based; conditions: route ip, time 4.0 day
# Cytomegalovirus [22] = assay: Antiviral activity against Cytomegalovirus Smith intraperitoneally infected in BALB/c mouse assessed as reduction in viral burden in salivary gland at 30 mg/kg,po bid administration measured after 10 days by plaque assay; type: functional, organism-based; conditions: route ip, time 10.0 day
# Cytomegalovirus [23] = assay: Antiviral activity against Cytomegalovirus Smith intraperitoneally infected in BALB/c mouse assessed as reduction in viral burden in salivary gland at 150 mg/kg,po bid administration measured after 10 days by plaque assay; type: functional, organism-based; conditions: route ip, time 10.0 day
# [24] = Solubility in PBS at pH 7; type: physicochemical
# [25] = Metabolic stability in human liver microsomes assessed as intrinsic clearance; type: ADME, Microsome; conditions: read-out: CLH
# Chain of Voltage-dependent L-type calcium channel subunit alpha-1C (Q13936 whole entry): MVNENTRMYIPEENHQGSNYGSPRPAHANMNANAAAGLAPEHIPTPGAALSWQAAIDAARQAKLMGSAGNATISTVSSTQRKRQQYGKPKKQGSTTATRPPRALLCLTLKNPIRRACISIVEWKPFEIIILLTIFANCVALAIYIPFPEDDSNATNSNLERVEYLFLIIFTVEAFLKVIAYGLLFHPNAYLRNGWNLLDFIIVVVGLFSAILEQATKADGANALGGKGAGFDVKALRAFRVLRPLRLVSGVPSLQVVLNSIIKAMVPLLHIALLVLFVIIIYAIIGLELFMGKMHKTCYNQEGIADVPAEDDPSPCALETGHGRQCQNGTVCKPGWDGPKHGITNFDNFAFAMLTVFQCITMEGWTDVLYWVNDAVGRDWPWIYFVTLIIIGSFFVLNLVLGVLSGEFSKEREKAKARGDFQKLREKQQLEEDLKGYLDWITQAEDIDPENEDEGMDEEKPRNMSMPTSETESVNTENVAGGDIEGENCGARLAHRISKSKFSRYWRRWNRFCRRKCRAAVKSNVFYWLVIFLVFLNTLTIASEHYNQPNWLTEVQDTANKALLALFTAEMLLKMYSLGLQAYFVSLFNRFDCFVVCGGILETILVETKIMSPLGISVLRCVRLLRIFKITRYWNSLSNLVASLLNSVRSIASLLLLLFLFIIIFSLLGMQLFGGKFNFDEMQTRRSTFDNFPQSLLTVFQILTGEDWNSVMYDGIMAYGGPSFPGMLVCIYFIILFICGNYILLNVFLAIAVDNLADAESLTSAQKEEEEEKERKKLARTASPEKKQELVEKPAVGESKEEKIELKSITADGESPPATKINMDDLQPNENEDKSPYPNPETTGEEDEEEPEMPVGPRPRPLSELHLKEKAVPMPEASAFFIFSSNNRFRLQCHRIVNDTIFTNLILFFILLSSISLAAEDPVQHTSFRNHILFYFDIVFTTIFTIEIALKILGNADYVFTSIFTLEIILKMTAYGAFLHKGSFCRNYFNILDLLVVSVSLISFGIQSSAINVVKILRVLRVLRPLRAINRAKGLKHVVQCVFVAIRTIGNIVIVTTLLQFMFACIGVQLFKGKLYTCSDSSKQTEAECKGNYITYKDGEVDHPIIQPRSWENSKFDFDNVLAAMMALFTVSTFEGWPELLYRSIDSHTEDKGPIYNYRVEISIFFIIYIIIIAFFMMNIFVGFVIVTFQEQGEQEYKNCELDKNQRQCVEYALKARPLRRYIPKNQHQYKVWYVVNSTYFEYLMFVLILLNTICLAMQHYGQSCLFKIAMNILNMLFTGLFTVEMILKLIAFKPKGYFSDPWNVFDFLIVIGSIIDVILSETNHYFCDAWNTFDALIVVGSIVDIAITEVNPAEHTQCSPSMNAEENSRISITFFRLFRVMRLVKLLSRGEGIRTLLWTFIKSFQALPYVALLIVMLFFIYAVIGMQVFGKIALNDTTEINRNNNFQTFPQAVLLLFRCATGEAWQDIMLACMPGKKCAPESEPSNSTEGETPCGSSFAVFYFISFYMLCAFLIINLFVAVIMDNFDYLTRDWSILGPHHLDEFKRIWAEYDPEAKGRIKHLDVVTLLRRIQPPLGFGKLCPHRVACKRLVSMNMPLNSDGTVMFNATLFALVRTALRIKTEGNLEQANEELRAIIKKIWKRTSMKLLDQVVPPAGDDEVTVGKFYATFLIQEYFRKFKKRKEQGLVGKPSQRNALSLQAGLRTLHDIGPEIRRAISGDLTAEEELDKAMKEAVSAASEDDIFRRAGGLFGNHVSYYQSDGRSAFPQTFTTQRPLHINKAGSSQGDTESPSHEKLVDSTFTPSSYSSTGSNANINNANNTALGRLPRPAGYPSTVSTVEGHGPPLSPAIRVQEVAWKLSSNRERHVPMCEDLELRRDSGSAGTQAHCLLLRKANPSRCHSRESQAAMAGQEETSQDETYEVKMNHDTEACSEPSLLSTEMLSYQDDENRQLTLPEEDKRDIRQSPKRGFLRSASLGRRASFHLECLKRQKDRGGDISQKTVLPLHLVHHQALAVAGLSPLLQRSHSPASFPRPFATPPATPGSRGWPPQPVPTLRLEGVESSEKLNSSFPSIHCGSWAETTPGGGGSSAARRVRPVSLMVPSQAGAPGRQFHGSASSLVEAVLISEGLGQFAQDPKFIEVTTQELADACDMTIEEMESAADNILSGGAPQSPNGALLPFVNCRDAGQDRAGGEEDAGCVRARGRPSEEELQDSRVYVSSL
# Chain of Sodium channel protein type 5 subunit alpha (Q14524 whole entry): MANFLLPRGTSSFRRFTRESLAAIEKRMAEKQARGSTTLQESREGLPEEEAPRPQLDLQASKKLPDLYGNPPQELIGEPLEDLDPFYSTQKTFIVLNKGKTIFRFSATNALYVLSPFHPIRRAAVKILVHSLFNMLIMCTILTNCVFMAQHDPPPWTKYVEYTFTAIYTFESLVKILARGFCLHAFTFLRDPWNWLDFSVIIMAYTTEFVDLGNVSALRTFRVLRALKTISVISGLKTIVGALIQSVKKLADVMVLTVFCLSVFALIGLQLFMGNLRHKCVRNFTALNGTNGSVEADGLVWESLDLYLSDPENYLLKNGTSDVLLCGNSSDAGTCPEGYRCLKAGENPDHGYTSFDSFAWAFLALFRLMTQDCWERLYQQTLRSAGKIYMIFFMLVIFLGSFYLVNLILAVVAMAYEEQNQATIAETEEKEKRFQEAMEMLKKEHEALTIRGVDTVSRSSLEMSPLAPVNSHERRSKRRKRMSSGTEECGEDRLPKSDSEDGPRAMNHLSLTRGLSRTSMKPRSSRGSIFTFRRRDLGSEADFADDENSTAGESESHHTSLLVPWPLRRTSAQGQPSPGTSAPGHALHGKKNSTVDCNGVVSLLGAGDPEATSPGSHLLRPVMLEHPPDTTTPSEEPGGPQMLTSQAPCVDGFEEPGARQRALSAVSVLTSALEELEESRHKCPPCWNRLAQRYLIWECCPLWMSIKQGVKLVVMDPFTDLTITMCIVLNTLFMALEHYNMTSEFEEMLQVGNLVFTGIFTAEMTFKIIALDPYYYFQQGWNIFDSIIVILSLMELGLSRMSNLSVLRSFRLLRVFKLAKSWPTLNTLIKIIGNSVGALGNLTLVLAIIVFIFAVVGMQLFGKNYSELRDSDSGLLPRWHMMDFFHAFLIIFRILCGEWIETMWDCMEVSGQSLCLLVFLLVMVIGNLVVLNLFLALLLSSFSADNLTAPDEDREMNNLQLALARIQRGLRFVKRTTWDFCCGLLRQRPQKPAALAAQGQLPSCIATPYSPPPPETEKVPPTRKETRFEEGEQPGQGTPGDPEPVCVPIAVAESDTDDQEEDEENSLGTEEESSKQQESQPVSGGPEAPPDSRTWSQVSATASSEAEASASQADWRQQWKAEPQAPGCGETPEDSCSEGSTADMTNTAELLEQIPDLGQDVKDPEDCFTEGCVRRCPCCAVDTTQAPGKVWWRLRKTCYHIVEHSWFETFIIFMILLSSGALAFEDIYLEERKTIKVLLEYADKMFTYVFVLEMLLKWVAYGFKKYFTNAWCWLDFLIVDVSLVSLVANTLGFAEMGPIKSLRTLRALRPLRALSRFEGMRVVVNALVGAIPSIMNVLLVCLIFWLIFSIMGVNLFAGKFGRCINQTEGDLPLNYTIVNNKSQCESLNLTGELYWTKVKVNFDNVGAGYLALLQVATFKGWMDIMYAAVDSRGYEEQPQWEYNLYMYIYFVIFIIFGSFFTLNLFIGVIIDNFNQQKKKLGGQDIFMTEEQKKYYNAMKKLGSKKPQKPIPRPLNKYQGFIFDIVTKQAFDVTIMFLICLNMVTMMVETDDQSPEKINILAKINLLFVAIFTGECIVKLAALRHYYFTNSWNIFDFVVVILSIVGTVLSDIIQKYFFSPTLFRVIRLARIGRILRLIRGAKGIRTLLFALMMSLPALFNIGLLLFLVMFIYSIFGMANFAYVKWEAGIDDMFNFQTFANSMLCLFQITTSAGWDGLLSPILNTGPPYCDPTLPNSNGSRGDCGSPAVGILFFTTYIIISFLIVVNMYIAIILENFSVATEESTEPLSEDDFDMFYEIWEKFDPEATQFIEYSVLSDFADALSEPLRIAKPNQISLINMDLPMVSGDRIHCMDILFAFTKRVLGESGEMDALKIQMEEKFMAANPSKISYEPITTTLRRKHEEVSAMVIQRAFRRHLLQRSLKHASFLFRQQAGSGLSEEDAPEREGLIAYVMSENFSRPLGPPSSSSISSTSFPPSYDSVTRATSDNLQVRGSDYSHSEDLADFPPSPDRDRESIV
structure (smiles),measurement,setting,value
COc1cc(NC(=O)Cc2ccc(C(F)(F)F)cc2)ccc1C[C@H]1COC(=O)N1,IC50,[1],0.022 µM
same,IC50,[2],0.013 µM
same,EC50,Human betaherpesvirus 5,0.641 µM
same,EC50,Human alphaherpesvirus 3,0.126 µM
same,EC50,Human alphaherpesvirus 1 [3],0.115 µM
same,EC50,Human alphaherpesvirus 2,0.114 µM
same,CL free,[4],11.2 L/h/kg
same,Vdu,[5],20 L/kg
same,MRT,[6],1.8 h
same,bioavailability,[7],71%
same,fAUC,[8],222 nM·h
same,fraction unbound,[9],0.052
same,IC50,[10],27 µM
same,IC50,[11],25.1 µM
same,IC50,[12],7.6 µM
same,IC50,[13],13.2 µM
same,Activity,Human alphaherpesvirus 1 [14],Dose-Dependent Effect
same,survival at 150 mg/kg,Human alphaherpesvirus 1 [15],100%
same,Activity,Human alphaherpesvirus 1 [16],Active
same,Activity,Human alphaherpesvirus 1 [17],Active
same,Activity,Human alphaherpesvirus 1 [18],Active
same,Activity,Human alphaherpesvirus 1 [19],Active
same,Activity,Cytomegalovirus [20],inactive
same,Activity,Cytomegalovirus [21],Active
same,Activity,Cytomegalovirus [22],inactive
same,Activity,Cytomegalovirus [23],Active
same,solubility,[24],129 µM
same,CLint scaled,[25],1.2 L/h/kg

# Source: ChEMBL document CHEMBL5579865, “Discovery of Broad-Spectrum Herpes Antiviral Oxazolidinone Amide Derivatives and Their Structure-Activity Relationships” (ACS Med Chem Lett, 2024)
